Organism: Rattus norvegicus
Experiment: Open TG-GATES - Regimen: Daily Repeat
Format: toxicity, organism-based, Sprague-Dawley
Set-up: regimen Daily Repeat, gender Male, age 6 weeks
Conditions: in vivo, po, 1000 mg/kg, route gavage, dose level High; for APTT / Bas / Eos / Fbg / Hb / Ht / Lym / MCH / MCHC / MCV / Mono / Neu / PT / Plat / RBC / Ret / WBC: tissue Blood; for KIDNEY_L / KIDNEY_R / KIDNEY_TOTAL: tissue Kidney; for LIVER: tissue Liver; for A/G / ALP / ALT / AST / BUN / CRE / Ca / Cl / DBIL / GLC / IP / K / LDH / Na / PL / RALB / TBIL / TC / TG / TP / gamma-GTP: tissue Plasma

O=C(OC[C@H]1O[C@@H](OC(=O)c2cc(O)c(O)c(OC(=O)c3cc(O)c(O)c(O)c3)c2)[C@H](OC(=O)c2cc(O)c(O)c(OC(=O)c3cc(O)c(O)c(O)c3)c2)[C@@H](OC(=O)c2cc(O)c(O)c(OC(=O)c3cc(O)c(O)c(O)c3)c2)[C@@H]1OC(=O)c1cc(O)c(O)c(OC(=O)c2cc(O)c(O)c(O)c2)c1)c1cc(O)c(O)c(OC(=O)c2cc(O)c(O)c(O)c2)c1 [TANNIC ACID]
TERMINAL_BW (72 h, time 3 day): 216.2 g
APTT (72 h, time 3 day): 17 s
Bas (72 h, time 3 day): 0%
Eos (72 h, time 3 day): 1.4%
Fbg (72 h, time 3 day): 234.6 mg/dL
Hb (72 h, time 3 day): 13.2 g/dL
Ht (72 h, time 3 day): 39.6%
Lym (72 h, time 3 day): 67.8%
MCH (72 h, time 3 day): 21.3 pg
MCHC (72 h, time 3 day): 33.3%
MCV (72 h, time 3 day): 63.8 fL
Mono (72 h, time 3 day): 10.2%
Neu (72 h, time 3 day): 20.6%
PT (72 h, time 3 day): 11.6 s
Plat (72 h, time 3 day): 110.8 x10_4/uL
RBC (72 h, time 3 day): 621.4 x10_4/ul
Ret (72 h, time 3 day): 7.9%
WBC (72 h, time 3 day): 91.3 x10_2/uL
KIDNEY_L (72 h, time 3 day): 1 g
KIDNEY_R (72 h, time 3 day): 1 g
KIDNEY_TOTAL (72 h, time 3 day): 1.9 g
LIVER (72 h, time 3 day): 10.6 g
A/G (72 h, time 3 day): 2
ALP (72 h, time 3 day): 818.6 IU/L
ALT (72 h, time 3 day): 42.6 IU/L
AST (72 h, time 3 day): 65.6 IU/L
BUN (72 h, time 3 day): 17.6 mg/dL
CRE (72 h, time 3 day): 0.4 mg/dL
Ca (72 h, time 3 day): 10.9 mg/dL
Cl (72 h, time 3 day): 104.2 meq/L
DBIL (72 h, time 3 day): 0.004 mg/dL
GLC (72 h, time 3 day): 204.4 mg/dL
IP (72 h, time 3 day): 7.9 mg/dL
K (72 h, time 3 day): 4.6 meq/L
LDH (72 h, time 3 day): 81.6 IU/L
Na (72 h, time 3 day): 139.4 meq/L
PL (72 h, time 3 day): 152.8 mg/dL
RALB (72 h, time 3 day): 3.6 g/dL
TBIL (72 h, time 3 day): 0.4 mg/dL
TC (72 h, time 3 day): 85 mg/dL
TG (72 h, time 3 day): 88.6 mg/dL
TP (72 h, time 3 day): 5.5 g/dL
gamma-GTP (72 h, time 3 day): 1.2 IU/L
TERMINAL_BW ([…], time 7 day): 253.1 g
TERMINAL_BW ([…], time 14 day): 291.2 g
TERMINAL_BW ([…], time 28 day): 390.8 g
APTT ([…], time 7 day): 17.3 s
Bas ([…], time 7 day): 0%
Eos ([…], time 7 day): 1%
Fbg ([…], time 7 day): 227.4 mg/dL
Hb ([…], time 7 day): 13.3 g/dL
Ht ([…], time 7 day): 40%
Lym ([…], time 7 day): 72%
MCH ([…], time 7 day): 21.8 pg
MCHC ([…], time 7 day): 33.3%
MCV ([…], time 7 day): 65.5 fL
Mono ([…], time 7 day): 6%
Neu ([…], time 7 day): 21.2%
PT ([…], time 7 day): 11.3 s
Plat ([…], time 7 day): 121.1 x10_4/uL
RBC ([…], time 7 day): 610.4 x10_4/ul
Ret ([…], time 7 day): 7.4%
WBC ([…], time 7 day): 103.9 x10_2/uL
APTT ([…], time 14 day): 16.4 s
Bas ([…], time 14 day): 0%
Eos ([…], time 14 day): 1%
Fbg ([…], time 14 day): 241.2 mg/dL
Hb ([…], time 14 day): 14.5 g/dL
Ht ([…], time 14 day): 43.2%
Lym ([…], time 14 day): 74.8%
MCH ([…], time 14 day): 20.5 pg
MCHC ([…], time 14 day): 33.4%
MCV ([…], time 14 day): 61.3 fL
Mono ([…], time 14 day): 9.4%
Neu ([…], time 14 day): 14.8%
PT ([…], time 14 day): 11.5 s
Plat ([…], time 14 day): 121.1 x10_4/uL
RBC ([…], time 14 day): 705.6 x10_4/ul
Ret ([…], time 14 day): 4.7%
WBC ([…], time 14 day): 116.2 x10_2/uL
APTT ([…], time 28 day): 16 s
Bas ([…], time 28 day): 0%
Eos ([…], time 28 day): 1.6%
Fbg ([…], time 28 day): 225.2 mg/dL
Hb ([…], time 28 day): 14.4 g/dL
Ht ([…], time 28 day): 43%
Lym ([…], time 28 day): 78.2%
MCH ([…], time 28 day): 19.4 pg
MCHC ([…], time 28 day): 33.5%
MCV ([…], time 28 day): 57.9 fL
Mono ([…], time 28 day): 7.6%
Neu ([…], time 28 day): 12.6%
PT ([…], time 28 day): 11.6 s
Plat ([…], time 28 day): 118.3 x10_4/uL
RBC ([…], time 28 day): 741.4 x10_4/ul
Ret ([…], time 28 day): 3.1%
WBC ([…], time 28 day): 130.6 x10_2/uL
KIDNEY_L ([…], time 7 day): 1.1 g
KIDNEY_R ([…], time 7 day): 1.1 g
KIDNEY_TOTAL ([…], time 7 day): 2.2 g
KIDNEY_L ([…], time 14 day): 1.1 g
KIDNEY_R ([…], time 14 day): 1.1 g
KIDNEY_TOTAL ([…], time 14 day): 2.3 g
KIDNEY_L ([…], time 28 day): 1.4 g
KIDNEY_R ([…], time 28 day): 1.4 g
KIDNEY_TOTAL ([…], time 28 day): 2.8 g
LIVER ([…], time 7 day): 12.1 g
LIVER ([…], time 14 day): 12.9 g
LIVER ([…], time 28 day): 16.8 g
A/G ([…], time 7 day): 1.7
ALP ([…], time 7 day): 897.4 IU/L
ALT ([…], time 7 day): 34.2 IU/L
AST ([…], time 7 day): 60 IU/L
BUN ([…], time 7 day): 16.2 mg/dL
CRE ([…], time 7 day): 0.5 mg/dL
Ca ([…], time 7 day): 10.8 mg/dL
Cl ([…], time 7 day): 103.2 meq/L
DBIL ([…], time 7 day): 0.012 mg/dL
GLC ([…], time 7 day): 200.4 mg/dL
IP ([…], time 7 day): 8 mg/dL
K ([…], time 7 day): 4.6 meq/L
LDH ([…], time 7 day): 93.4 IU/L
Na ([…], time 7 day): 136.6 meq/L
PL ([…], time 7 day): 125.4 mg/dL
RALB ([…], time 7 day): 3.7 g/dL
TBIL ([…], time 7 day): 0.4 mg/dL
TC ([…], time 7 day): 62.6 mg/dL
TG ([…], time 7 day): 91 mg/dL
TP ([…], time 7 day): 5.9 g/dL
gamma-GTP ([…], time 7 day): 1 IU/L
A/G ([…], time 14 day): 1.9
ALP ([…], time 14 day): 720.4 IU/L
ALT ([…], time 14 day): 35.4 IU/L
AST ([…], time 14 day): 58.6 IU/L
BUN ([…], time 14 day): 17.8 mg/dL
CRE ([…], time 14 day): 0.5 mg/dL
Ca ([…], time 14 day): 10.7 mg/dL
Cl ([…], time 14 day): 104.6 meq/L
DBIL ([…], time 14 day): 0.024 mg/dL
GLC ([…], time 14 day): 204.2 mg/dL
IP ([…], time 14 day): 8.3 mg/dL
K ([…], time 14 day): 4.6 meq/L
LDH ([…], time 14 day): 87.6 IU/L
Na ([…], time 14 day): 140.4 meq/L
PL ([…], time 14 day): 145.2 mg/dL
RALB ([…], time 14 day): 3.8 g/dL
TBIL ([…], time 14 day): 0.4 mg/dL
TC ([…], time 14 day): 70.4 mg/dL
TG ([…], time 14 day): 115.8 mg/dL
TP ([…], time 14 day): 5.8 g/dL
gamma-GTP ([…], time 14 day): 0.8 IU/L
A/G ([…], time 28 day): 1.8
ALP ([…], time 28 day): 573 IU/L
ALT ([…], time 28 day): 31.6 IU/L
AST ([…], time 28 day): 54 IU/L
BUN ([…], time 28 day): 20.4 mg/dL
CRE ([…], time 28 day): 0.5 mg/dL
Ca ([…], time 28 day): 10.7 mg/dL
Cl ([…], time 28 day): 105.8 meq/L
DBIL ([…], time 28 day): 0.006 mg/dL
GLC ([…], time 28 day): 199.2 mg/dL
IP ([…], time 28 day): 7.8 mg/dL
K ([…], time 28 day): 4.5 meq/L
LDH ([…], time 28 day): 87.8 IU/L
Na ([…], time 28 day): 139 meq/L
PL ([…], time 28 day): 152.6 mg/dL
RALB ([…], time 28 day): 3.8 g/dL
TBIL ([…], time 28 day): 0.4 mg/dL
TC ([…], time 28 day): 73.4 mg/dL
TG ([…], time 28 day): 139.4 mg/dL
TP ([…], time 28 day): 6 g/dL
gamma-GTP ([…], time 28 day): 1 IU/L

Source: ChEMBL document CHEMBL3885861, “Open TG-GATES”
